In BindingDB's records for doi:10.7270/Q2DN43GX (The Scripps Research Institute Molecular Screening Center, 2007):

Molecular target: T1, Protein Rev [8-24] (Human immunodeficiency virus 1, UniProt P05866)
T1 construct: 8-24
Experiment: HIV-1 Rev-RRE RNA binding disruptors, dose response, biochemical, protein-RNA interaction (AID 842)

SMILES	IC50 [µM]
CC[n+]1c(CC=Nc2ccccc2)oc2ccccc21 [3-Ethyl-2-(2-phenylamino-vinyl)-benzooxazol-3-ium]	5.66
Cc1[nH]n(-c2ccccc2)c(=O)c1N=Nc1ccc(N)cc1 [4-(4-aminophenyl)azo-5-methyl-2-phenyl-4H-pyrazol-3-one]	> 79.4
